Assay results: PubChem BioAssay AID1845215 (Molecular Pharmacology Branch, DTP, NCI, 2023)
Several values for one entry are separate records, joined by “and”; a condition that tells them apart may be missing. Identical values can stand only once.

System: SW 1271 complex tumor spheroid viability
Test: Anticancer human tumor SW 1271 cell line growth inhibition;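 also: spheroids exposed to agents for seven days before readout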;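 as to viability, T/C: percent of DMSO vehicle control luminescence so 100% = vehicle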
Conditions: for viability, T/C: stronger effect = lower value
Procedure, shortened: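 Complex tumor spheroids combined malignant cells with endothelial cells and mesenchymal stem cells. DNA-damaging drugs and DNA repair inhibitors were tested alone and in combination, at half-log dilutions down from clinical Cmax (top 10 microM if Cmax unknown), 0.25% DMSO final.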

`COc1ccc([C@@H](O)c2cc(-c3ncnc4cc(N5CCOCC5)ccc34)c(F)cc2Cl)nn1` + COc1cc2c(cc1O)CCNC21CSC2c3c(OC(C)=O)c(C)c4c(c3C(COC1=O)N1C(O)C3Cc5cc(C)c(OC)c(O)c5C(C21)N3C)OCO4 gave an IC50 (curve of first compound, second compound 30 pM) of 1080 nM, an IC50 (curve of first compound, second compound 94.9 pM) of 168 nM and an IC50 (curve of first compound, second compound 0.0003 µM) of under 31.6 nM. The IC50 (curve of first compound, second compound 0.000949 µM) was under 31.6 nM, the IC50 (curve of first compound, second compound 0.003 µM) was under 31.6 nM and the viability, T/C (second compound 30 pM, first compound 0.0316 µM) was 84.9%. For the same compound, the viability, T/C (second compound 30 pM, first compound 0.1 µM) was 86.9%, the viability, T/C (second compound 30 pM, first compound 0.316 µM) was 77.4% and the viability, T/C (second compound 30 pM, first compound 1 µM) was 51.1%. For the same compound, the viability, T/C (second compound 30 pM, first compound 3.16 µM) was 21.7%, the viability, T/C (second compound 30 pM, first compound 10 µM) was 6.57% and the viability, T/C (second compound 94.9 pM, first compound 0.0316 µM) was 71.1%. The viability, T/C (second compound 94.9 pM, first compound 0.1 µM) was 51.8%, the viability, T/C (second compound 94.9 pM, first compound 0.316 µM) was 39.6% and the viability, T/C (second compound 94.9 pM, first compound 1 µM) was 33.5%. The viability, T/C (second compound 94.9 pM, first compound 3.16 µM) was 25.9%, the viability, T/C (second compound 94.9 pM, first compound 10 µM) was 4.84% and the viability, T/C (second compound 0.0003 µM, first compound 0.0316 µM) was 35.7%. For the same compound, the viability, T/C (second compound 0.0003 µM, first compound 0.1 µM) was 33.3%, the viability, T/C (second compound 0.0003 µM, first compound 0.316 µM) was 31.1% and the viability, T/C (second compound 0.0003 µM, first compound 1 µM) was 17.6%. The viability, T/C (second compound 0.0003 µM, first compound 3.16 µM) was 1.97%, the viability, T/C (second compound 0.0003 µM, first compound 10 µM) was 0.12% and the viability, T/C (second compound 0.000949 µM, first compound 0.0316 µM) was 2.95%. It also gave a viability, T/C (second compound 0.000949 µM, first compound 0.1 µM) of 2.6%, a viability, T/C (second compound 0.000949 µM, first compound 0.316 µM) of 1.24% and a viability, T/C (second compound 0.000949 µM, first compound 1 µM) of 0.04%. It also gave a viability, T/C (second compound 0.000949 µM, first compound 3.16 µM) of 0.02%, a viability, T/C (second compound 0.000949 µM, first compound 10 µM) of 0.1% and a viability, T/C (second compound 0.003 µM, first compound 0.0316 µM) of 0.1%. The viability, T/C (second compound 0.003 µM, first compound 0.1 µM) was 0.08%, the viability, T/C (second compound 0.003 µM, first compound 0.316 µM) was 0.08% and the viability, T/C (second compound 0.003 µM, first compound 1 µM) was 0.08%. For the same compound, the viability, T/C (second compound 0.003 µM, first compound 3.16 µM) was 0.09% and the viability, T/C (second compound 0.003 µM, first compound 10 µM) was 0.15%.

With `COc1cc(C)[nH]c(=O)c1CN1CCc2c(Cl)cc(C(OC)C3COC3)c(Cl)c2C1=O` (configuration not stated) the viability, T/C (compound 0.0316 µM) was 98.5% and 98.1% and 104%, the viability, T/C (compound 0.1 µM) was 101% and 92.7% and 98.5% and the viability, T/C (compound 0.316 µM) was 102% and 86.8% and 91.5%. The viability, T/C (compound 1 µM) was 105% and 89.8% and 94.6%, the viability, T/C (compound 3.16 µM) was 94.8% and 79.1% and 95.3% and the viability, T/C (compound 10 µM) was 84% and 75.4% and 81.9%. It also gave an IC50 (curve of compound) of over 10000 nM.
